{"source": "patent US8871435B2", "about": "“Methods and compositions for identifying agents that inhibit an NS4B-mediated neoplastic cellular phenotype of HCV infected cells” (The Board of Trustees of the Leland Stanford Junior …, priority 2007, dated 2014)", "target": "NS4B-GFP (Hepatitis C virus genotype 1b, UniProt Q9WMX2)", "sequence (Q9WMX2 1712-1972)": "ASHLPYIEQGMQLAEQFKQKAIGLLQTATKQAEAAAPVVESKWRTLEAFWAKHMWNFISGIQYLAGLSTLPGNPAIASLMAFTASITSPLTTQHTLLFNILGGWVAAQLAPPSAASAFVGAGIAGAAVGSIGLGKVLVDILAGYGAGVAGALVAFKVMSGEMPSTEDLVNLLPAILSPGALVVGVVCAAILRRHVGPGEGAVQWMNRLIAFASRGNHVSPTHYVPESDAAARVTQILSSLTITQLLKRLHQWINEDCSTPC", "format": "binding, hepatitis C virus (HCV)", "data": [{"smiles": "Nc1nc2c(ncn2[C@@H]2O[C@H](COP(=O)(O)OP(=O)(O)OP(O)(O)=S)[C@@H](O)[C@H]2O)c(=O)[nH]1", "note": "[GTPγS]", "values": [{"measurement": "binding of labeled GTP in the presence of cold competitor nucleotide", "value": "progressively decreased"}]}, {"smiles": "[N-]=[N+]=Nc1ccc(NP(=O)(O)OP(=O)(O)OP(=O)(O)OC[C@H]2O[C@@H](n3cnc4c(N)ncnc43)[C@H](O)[C@@H]2O)cc1", "note": "[ATP, ATP-γ-4-azidoanilide]", "values": [{"measurement": "labeling (binding) of NS4B-GFP by 32P-labeled photoactivatable nucleotide analog", "value": "significantly less efficient than GTP binding"}]}, {"smiles": "[N-]=[N+]=Nc1ccc(NP(=O)(O)OP(=O)(O)OP(=O)(O)OC[C@H]2O[C@@H](n3cnc4c(=O)[nH]c(N)nc43)[C@H](O)[C@@H]2O)cc1", "note": "[GTP, GTP-γ-4-azidoanilide]", "values": [{"measurement": "labeling (binding) of NS4B-GFP by 32P-labeled photoactivatable nucleotide analog", "value": "specifically labeled"}]}]}
